From patent US20100292205A1, “Pyrimidone Compounds As GSK-3 Inhibitors” (PFIZER INC., priority 2006, published 2010) come the findings set out here.

T1 sequence (P49841 whole entry): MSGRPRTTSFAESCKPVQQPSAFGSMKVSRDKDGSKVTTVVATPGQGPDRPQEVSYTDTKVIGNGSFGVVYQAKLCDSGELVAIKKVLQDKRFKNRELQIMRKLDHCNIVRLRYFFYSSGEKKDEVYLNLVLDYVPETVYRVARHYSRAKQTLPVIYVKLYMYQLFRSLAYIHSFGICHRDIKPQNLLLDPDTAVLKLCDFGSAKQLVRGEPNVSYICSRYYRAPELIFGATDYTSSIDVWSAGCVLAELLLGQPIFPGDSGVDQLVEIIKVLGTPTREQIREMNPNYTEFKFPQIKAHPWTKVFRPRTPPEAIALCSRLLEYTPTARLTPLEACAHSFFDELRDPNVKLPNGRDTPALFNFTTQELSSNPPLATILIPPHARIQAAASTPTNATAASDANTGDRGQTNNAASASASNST

The first experiment concerns the target T1, Recombinant human GSK3β (Homo sapiens, UniProt P49841).
T1 construct: His-tag; made in house; host or cells: Sf9 insect cells / baculovirus
The experiment can be described thus: GSK-3β (Glycogen Synthase Kinase) cell free enzyme assay. The experiment is classed as biochemical. The note with it: 1 μM; Examples 157-199; read-out: Percent inhibition at 1 μM. The essentials: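 Recombinant human GSK3β, expressed in SF9/baculovirus cells and His-tag purified on Ni-NTA Superflow, was preincubated with test agent for 30 minutes at room temperature. Substrate mix was then added to start the reaction in 8 mM MOPS (pH 7.0), 10 mM magnesium acetate, 0.2 mM EDTA, 1 mM DTT, 2 uM cold ATP, 0.025 uCi/well [33P]ATP (120 uL) and 1.0 uM biotinylated peptide. Reactions ran at RT for 60 min.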
`CN(c1nc(-c2ccncc2)cc(=O)n1C)[C@H]1CC[C@H]2N(S(=O)(=O)c3ccccc3)CC[C@@]2(C)C1` [Example 178, 3-Methyl-2-{methyl[(3a,S5,S7,aR)-3a-methyl-1-(phenylsulfonyl)octahydro-1H-indol-5-yl]amino}-6-pyridin-4-ylpyrimidin-4(3H)-one]: the inhibition at 1 µM turned out to be 100%. The same measure, in the same setting: to `CN(c1nc(-c2ccncc2)cc(=O)n1C)C1CCN(S(=O)(=O)c2ccccc2)C1` (centres unmarked) [Example 180, 3-Methyl-2-{methyl[1-(phenylsulfonyl)pyrrolidin-3-yl]amino}-6-pyridin-4-ylpyrimidin-4(3H)-one] belongs 93%. As to `Cn1c(NC2CCN(S(=O)(=O)c3ccccc3)C2)nc(-c2ccncc2)cc1=O` (centres unmarked) [Example 174, 3-Methyl-2-{[1-(phenylsulfonyl)pyrrolidin-3-yl]amino}-6-pyridin-4-ylpyrimidin-4(3H)-one], the inhibition at 1 µM was 95%. The same measure, in the same setting: to `Cn1c(NCC2CCN(S(=O)(=O)c3ccccc3)C2)nc(-c2ccncc2)cc1=O` (centres unmarked) [Example 191, 3-Methyl-2-({[1-(phenylsulfonyl)pyrrolidin-3-yl]methyl}amino)-6-pyridin-4-ylpyrimidin-4(3H)-one] belongs 76%; to `Cn1c(NC2CCCN(S(=O)(=O)c3ccccc3)C2)nc(-c2ccncc2)cc1=O` (centres unmarked) [Example 179, 3-Methy-2-{[1-(phenylsulfonyl)piperidin-3-yl]amino}-6-pyridin-4-ylpyrimidin-4(3H)-one], 93%.

Regarding `Cn1c(N[C@H]2[C@@H]3CN(S(=O)(=O)c4ccccc4)C[C@@H]32)nc(-c2ccncc2)cc1=O` [Example 177, 3-Methyl-2-{[(1R,5S,6s)-3-(phenylsulfonyl)-3-azabicyclo[3.1.0]hex-6-yl]amino}-6-pyridin-4-ylpyrimidin-4(3H)-one], the inhibition at 1 µM was found to be 97%. On the same count and under the same terms, to `CCN(C[C@H]1CCCN1S(=O)(=O)c1ccccc1)c1nc(-c2ccncc2)cc(=O)n1C` [Example 189, 2-(Ethyl{[(2R)-1-(phenylsulfonyl)pyrrolidin-2-yl]methyl}amino)-3-methyl-6-pyridin-4-ylpyrimidin-4(3H)-one] belongs 95%.

Still in this experiment, the particulars now being: 1 μM; Examples 236-262; read-out: Percent inhibition at 1 μM.
`Cn1c(NC2CCCN(Cc3ccccc3)CC2)nc(-c2ccncc2)cc1=O` (centres unmarked) [Example 237, 2-[(1-Benzylazepan-4-yl)amino]-3-methyl-6-pyridin-4-ylpyrimidin-4(3H)-one]: the inhibition at 1 µM amounted to 84%.

On to `CN1CC(CNc2nc(-c3ccncc3)cc(=O)n2C)C1` [Example 249, 3-Methyl-2-{[(1-methylazetidin-3-yl)methyl]amino}-6-pyridin-4-ylpyrimidin-4(3H)-one], for which the inhibition at 1 µM turned out to be 33%. As to `Cn1c(N[C@@H]2CC[C@@H](NCc3ccccc3)C2)nc(-c2ccncc2)cc1=O` [Example 262, 2-{[(1R,3R)-3-(Benzylamino)cyclopen-tyl]amino}-3-methyl-6-pyridin-4-ylpyrimidin-4(3H)-one], the inhibition at 1 µM is 48%.

The same experiment, now with this note: 1 μM; GSK-3β cell free enzyme assay; Examples 42-60.
“2-{[(3a,S5,S7,aR)-1- Acetyl-3a- methyloctahydro-1H- indol-5- yl](methyl)amino}-3- methyl-6-pyridin-4- ylpyrimidin-4(3H)-one [Example 50]”: the “Percent inhibition at 1 μM” value was 82%.

Staying with this experiment, now noted: cell free enzyme assay; Examples 1-35.
In the case of `Cn1c(N[C@H]2CN(C(=O)OC(C)(C)C)C[C@@H]2F)nc(-c2ccncc2)cc1=O` [Example 17, tert-butyl (3S,4S)-3-Fluoro-4-[(1-methyl-6-oxo-4-pyridin-4-yl-1,6-dihydropyrimidin-2-yl)amino]pyrrolidine-1-carboxylate], the IC50 is 26.3 nM.

Still in this experiment, the particulars now being: cell free enzyme assay; Examples 62-155.
Turning to `CN(c1nc(-c2ccncc2F)cc(=O)n1C)[C@H]1[C@@H]2CN(C(=O)c3ccccc3F)C[C@@H]21` [Example 118, 2-{[(1R,5S,6s)-3-(2-Fluorobenzoyl)-3-azabicyclo[3.1.0]hex-6-yl](methyl)amino}-6-(3-fluoropyridin-4-yl)-3-methylpyrimidin-4(3H)-one], the IC50 was determined as 1.11 nM. Turning to `CN(c1nc(-c2ccncc2F)cc(=O)n1C)[C@H]1[C@@H]2CN(C(=O)C(C)(C)C)C[C@@H]21` [Example 121, 2-{[(1R,5S,6s)-3-(2,2-Dimethylpropanoyl)-3-azabicyclo[3.1.0]hex-6-yl](methyl)amino}-6-(3-fluoropyridin-4-yl)-3-methylpyrimidin-4(3H)-one], the IC50 came out at 1.41 nM. On to `CCN(c1nc(-c2ccncc2)cc(=O)n1C)C1CCN(C(=O)c2ccccc2)CC1` [Example 74, 2-[(1-Benzoylpiperidin-4-yl)(ethyl)amino]-3-methyl-6-pyridin-4-ylpyrimidin-4(3H)-one], for which the IC50 was 144 nM.

Turning to `Cn1c(N[C@H]2[C@@H]3CN(C(=O)c4ccccc4)C[C@@H]32)nc(-c2ccncc2)cc1=O` [Example 67, 2-{[(1R,5S,6s)-3-Benzoyl-3-azabicyclo[3.1.0]hex-6-yl]amino}-3-methyl-6-pyridin-4-ylpyrimidin-4(3H)-one], the IC50 is 2 nM. As for `Cn1c(NC[C@@H]2CCCN2C(=O)Cc2ccccc2)nc(-c2ccncc2)cc1=O` [Example 93, 3-Methyl-2-({[(2S)-1-(phenylacetyl)pyrrolidin-2-yl]methyl}amino)-6-pyridin-4-ylpyrimidin-4(3H)-one], the concentration for half-maximal inhibition (IC50) turned out to be 878 nM.

On to `CCCCC(=O)N1C[C@@H]2[C@H](C1)[C@H]2N(C)c1nc(-c2ccncc2F)cc(=O)n1C` [Example 128, 6-(3-Fluoropyridin-4-yl)-3-methyl-2-{methyl[(1R,5S,6s)-3-pentanoyl-3-azabicyclo[3.1.0]hex-6-yl]amino}pyrimidin-4(3H)-one], for which the IC50 came out at 16.4 nM.

As to `CCC(=O)N1C[C@@H]2[C@H](C1)[C@H]2N(C)c1nc(-c2ccncc2F)cc(=O)n1C` [Example 135, 6-(3-Fluoropyridin-4-yl)-3-methyl-2-{methyl[(1R,5S,6s)-3-propionyl-3-azabicyclo[3.1.0]hex-6-yl]amino}pyrimidin-4(3H)-one], the IC50 was 5.46 nM.

The same experiment, now with this note: cell free enzyme assay; Examples 222-234.
On to `CCOC(=O)N1CCC[C@@H](Nc2nc(-c3ccncn3)cc(=O)n2C)C1` [Example 229, Ethyl (3R)-3-[(1-methyl-6-oxo-1,6-dihydro-4,4′-bipyrimidin-2-yl)amino]piperidine-1-carboxylate], for which the IC50 worked out at 1.99 nM.

The experiment is the same for the next values; noted with them: cell free enzyme assay; Examples 265-291.
For `CN(c1nc(-c2ccncc2F)cc(=O)n1C)[C@H]1[C@@H]2CN(c3nnnn3Cc3ccc(C#N)cc3)C[C@@H]21` [Example 271, 4-({5-[(1R,5S,6s)-6-{[4-(3-Fluoropyridin-4-yl)-1-methyl-6-oxo-1,6-dihydropyrimidin-2-yl](methyl)amino}-3-azabicyclo[3.1.0]hex-3-yl]-1H-tetrazol-1-yl}methyl)benzonitrile], the IC50 was 8.8 nM. For the compound `CN(c1nc(-c2ccncc2F)cc(=O)n1C)[C@H]1[C@@H]2CN(c3nc4cc(F)ccc4n3C)C[C@@H]21` [Example 266, 2-{[(1R,5S,6s)-3-(5-Fluoro-1-methyl-1H-benzimidazol-2-yl)-3-azabicyclo[3.1.0]hex-6-yl](methyl)amino}-6-(3-fluoropyridin-4-yl)-3-methylpyrimidin-4(3H)-one], the IC50 came to 16.7 nM.

In the case of `CCc1cn2nc(N3C[C@@H]4[C@H](C3)[C@H]4N(C)c3nc(-c4ccncc4F)cc(=O)n3C)ccc2n1` [Example 265, 2-{[(1R,5S,6s)-3-(2-Ethylimidazo[1,2-b]pyridazin-6-yl)-3-azabicyclo[3.1.0]hex-6-yl](methyl)amino}-6-(3-fluoropyridin-4-yl)-3-methylpyrimidin-4(3H)-one], the IC50 worked out at 52.4 nM.

For orientation: inhibition means the relative decrease from the control value, in per cent. The IC50 is the concentration needed to halve the response being measured.
